Results from ChEMBL document CHEMBL1140265, “Inhibitors of HCV NS5B polymerase. Part 1: Evaluation of the southern region of (2Z)-2-(benzoylamino)-3-(5-phenyl-2-furyl)acrylic acid” (Bioorg Med Chem Lett, 2005).

Columns and labels:
[1] = biological target: RNA-directed RNA polymerase (Hepacivirus hominis, UniProt O39930); assay: Inhibitory concentration against Hepatitis C virus NS5B polymerase
[2] = system: Hepatitis C virus; assay: Cytotoxic concentration against Hepatitis C virus replication using sub-genomic replicon assay; format: functional, Hepacivirus hominis
[3] = system: Hepatitis C virus; assay: Effective concentration against Hepatitis C virus replication using sub-genomic replicon assay; format: functional, Hepacivirus hominis; settings: read-out: ED50 (the source's name)
[4] = Bioavailability in rat (dose 5 mg/kg); format: ADME, organism-based; settings: in vivo
[5] = Half-life in rat after 5 mpk dosage administration; format: ADME, organism-based; settings: in vivo, 5 mg/kg
[6] = Clearance at low levels in rat after 5 mpk dosage administration; format: ADME, organism-based; settings: in vivo, 5 mg/kg
[7] = Maximum concentration in plasma levels in rat after 5 mpk dosage administration; format: ADME, organism-based; design: dose 5 mpk; settings: 5 mg/kg

RNA-directed RNA polymerase, sequence (O39930 whole entry): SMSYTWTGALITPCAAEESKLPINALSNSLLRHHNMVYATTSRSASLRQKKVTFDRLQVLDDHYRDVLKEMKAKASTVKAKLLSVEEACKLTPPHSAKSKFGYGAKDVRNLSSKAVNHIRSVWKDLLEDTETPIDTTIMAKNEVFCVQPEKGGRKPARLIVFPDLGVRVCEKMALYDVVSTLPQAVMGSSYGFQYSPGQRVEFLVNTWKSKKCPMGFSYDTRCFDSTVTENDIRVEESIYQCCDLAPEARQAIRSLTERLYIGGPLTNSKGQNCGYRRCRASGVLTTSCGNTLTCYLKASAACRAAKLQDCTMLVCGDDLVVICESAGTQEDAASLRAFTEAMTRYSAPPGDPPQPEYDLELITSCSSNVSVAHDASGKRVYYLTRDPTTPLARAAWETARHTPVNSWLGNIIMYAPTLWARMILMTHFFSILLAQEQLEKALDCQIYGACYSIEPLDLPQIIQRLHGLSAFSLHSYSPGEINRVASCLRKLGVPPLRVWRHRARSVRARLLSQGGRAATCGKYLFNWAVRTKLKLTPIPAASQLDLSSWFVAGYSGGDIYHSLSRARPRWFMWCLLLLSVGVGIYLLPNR

| SMILES | IC50 [1] [µM] | further results |
| --- | --- | --- |
| O=C(O)/C(=C/c1ccc(-c2ccc(OC(F)(F)F)cc2)o1)NC(=O)c1ccccc1 | 22 |  |
| CC(C)(C)c1ccccc1Oc1ccc(/C=C(\NC(=O)c2ccccc2)C(=O)O)cc1 | > 100 |  |
| O=C(O)/C(=C/c1ccc(-c2cccc(OC(F)(F)F)c2)o1)NC(=O)c1ccccc1 | 66 |  |
| CC(C)Oc1ccccc1Oc1ccc(/C=C(\NC(=O)c2ccccc2)C(=O)O)cc1 | 44 |  |
| CSc1ccc(-c2ccc(/C=C(\NC(=O)c3ccccc3)C(=O)O)o2)cc1 | 27 |  |
| CC(C)c1ccccc1Oc1ccc(/C=C(\NC(=O)c2ccccc2)C(=O)O)cc1 | 28 |  |
| O=C(O)/C(=C/c1ccc(Oc2ccccc2)cc1)NC(=O)c1ccccc1 | 17 |  |
| COc1ccccc1Oc1ccc(/C=C(\NC(=O)c2ccccc2)C(=O)O)cc1 | 15 |  |
| O=C(O)/C(=C/c1ccc(-c2ccccc2CO)s1)NC(=O)c1ccccc1 | 20 |  |
| O=C(O)/C(=C/c1ccc(Oc2ccccc2[N+](=O)[O-])cc1)NC(=O)c1ccccc1 | 73 |  |
| O=C(O)/C(=C/c1ccc(-c2ccc([N+](=O)[O-])cc2)o1)NC(=O)c1ccccc1 | > 100 |  |
| O=C(O)/C(=C/c1ccc(-c2cccc(CO)c2)o1)NC(=O)c1ccccc1 | > 100 |  |
| O=C(O)/C(=C/c1cncc(-c2ccccc2Cl)c1)NC(=O)c1ccccc1 | > 100 |  |
| N#Cc1ccccc1Oc1ccc(/C=C(\NC(=O)c2ccccc2)C(=O)O)cc1 | 47 |  |
| O=C(O)/C(=C/c1ccc(-c2ccc(CO)cc2)o1)NC(=O)c1ccccc1 | > 100 |  |
| NS(=O)(=O)c1ccc(-c2ccc(/C=C(\NC(=O)c3ccccc3)C(=O)O)o2)cc1 | > 100 |  |
| COc1ccccc1-c1ccc(/C=C(\NC(=O)c2ccccc2)C(=O)O)o1 | 20 |  |
| O=C(O)/C(=C/c1ccc(-c2ccc(C(F)(F)F)cc2)o1)NC(=O)c1ccccc1 | 13 |  |
| O=C(O)/C(=C/c1ccc(-c2cccc([N+](=O)[O-])c2)o1)NC(=O)c1ccccc1 | 25 |  |
| O=C(O)/C(=C/c1ccc(Oc2ccccc2-c2ccccc2)cc1)NC(=O)c1ccccc1 | 48 |  |
| NS(=O)(=O)c1cccc(-c2ccc(/C=C(\NC(=O)c3ccccc3)C(=O)O)o2)c1 | > 100 |  |

Compounds with a lower IC50 [1], results first:

| IC50 [1] [µM] | SMILES | further results |
| --- | --- | --- |
| 12 | O=C(O)/C(=C/c1ccc(-c2ccc(F)cc2)o1)NC(=O)c1ccccc1 |  |
| 11 | O=C(O)/C(=C/c1cccc(-c2ccccc2Cl)n1)NC(=O)c1ccccc1 |  |
| 9.4 | CCc1ccccc1Oc1ccc(/C=C(\NC(=O)c2ccccc2)C(=O)O)cc1 |  |
| 8.7 | O=C(O)/C(=C/c1ccc(-c2cccc(C(F)(F)F)c2)o1)NC(=O)c1ccccc1 |  |
| 6.9 | O=C(O)/C(=C/c1ccc(-c2ccccc2[N+](=O)[O-])o1)NC(=O)c1ccccc1 |  |
| 6.9 | O=C(O)/C(=C/c1ccc(Oc2ccccc2F)cc1)NC(=O)c1ccccc1 |  |
| 6.7 | O=C(O)/C(=C/c1ccc(-c2ccccc2)o1)NC(=O)c1ccccc1 | CC50 [2]: > 100 µM; EC50 [3]: > 100 µM |
| 6 | O=C(O)/C(=C/c1ccc(-c2cccc(Cl)c2)o1)NC(=O)c1ccccc1 |  |
| 5.6 | O=C(O)/C(=C/c1ccc(-c2ccccc2C(F)(F)F)o1)NC(=O)c1ccccc1 |  |
| 5.5 | O=C(O)/C(=C/c1ccc(Oc2c(Cl)cccc2[N+](=O)[O-])cc1)NC(=O)c1ccccc1 |  |
| 5.2 | O=C(O)/C(=C/c1ncc(-c2ccccc2Cl)s1)NC(=O)c1ccccc1 |  |
| 4.6 | O=C(O)/C(=C/c1ccc(-c2ccc(Cl)cc2)o1)NC(=O)c1ccccc1 |  |
| 4 | O=C(O)/C(=C/c1ccc(-c2ccccc2OC(F)(F)F)o1)NC(=O)c1ccccc1 |  |
| 3.9 | O=C(O)/C(=C/c1ccc(-c2cccc(F)c2)o1)NC(=O)c1ccccc1 |  |
| 3.1 | O=C(O)/C(=C/c1ccc(-c2ccccc2F)o1)NC(=O)c1ccccc1 |  |
| 3 | Cc1ccccc1-c1ccc(/C=C(\NC(=O)c2ccccc2)C(=O)O)o1 |  |

| IC50 [1] [µM] | SMILES | further results |
| --- | --- | --- |
| 2.6 | O=C(O)/C(=C/c1ccc(-c2ccccc2F)s1)NC(=O)c1ccccc1 |  |
| 1.8 | CSc1ccccc1Oc1ccc(/C=C(\NC(=O)c2ccccc2)C(=O)O)cc1 |  |
| 1.5 | O=C(O)/C(=C/c1ccc(-c2ccccc2)s1)NC(=O)c1ccccc1 |  |
| 1.4 | Cc1ccccc1-c1ccc(/C=C(\NC(=O)c2ccccc2)C(=O)O)s1 |  |
| 1.3 | O=C(O)/C(=C/c1cccc(-c2ccccc2Cl)c1)NC(=O)c1ccccc1 |  |
| 1.3 | O=C(O)/C(=C/c1ccc(Oc2ccccc2C(F)(F)F)cc1)NC(=O)c1ccccc1 |  |
| 1.3 | O=C(O)/C(=C/c1ccc(-c2ccccc2Cl)o1)NC(=O)c1ccccc1 |  |
| 0.66 | O=C(O)/C(=C/c1ccc(-c2ccccc2Cl)s1)NC(=O)c1ccccc1 |  |
| 0.58 | Cc1ccccc1Oc1ccc(/C=C(\NC(=O)c2ccccc2)C(=O)O)cc1 |  |
| 0.31 | Nc1cccc(Cl)c1Oc1ccc(/C=C(\NC(=O)c2ccccc2)C(=O)O)cc1 |  |
| 0.2 | O=C(O)/C(=C/c1ccc(Oc2ccccc2Cl)cc1)NC(=O)c1ccccc1 | bioavailability [4]: 42%; half-life [5]: 1.9 h; CC50 [2]: > 100 µM; clearance [6]: 5.17 mL/min/kg; Cmax [7]: 22 µM; EC50 [3]: 60 µM |
| 0.2 | Cc1cccc(Cl)c1Oc1ccc(/C=C(\NC(=O)c2ccccc2)C(=O)O)cc1 |  |
| 0.1 | O=C(O)/C(=C/c1ccc(Oc2ccccc2Br)cc1)NC(=O)c1ccccc1 | bioavailability [4]: 21%; half-life [5]: 1.5 h; CC50 [2]: > 100 µM; clearance [6]: 3.33 mL/min/kg; Cmax [7]: 9 µM; EC50 [3]: 28 µM |
| 0.07 | O=C(O)/C(=C/c1ccc(Oc2c(F)cccc2Cl)cc1)NC(=O)c1ccccc1 |  |
| 0.04 | O=C(O)/C(=C/c1ccc(Oc2ccccc2I)cc1)NC(=O)c1ccccc1 | CC50 [2]: > 100 µM; EC50 [3]: 29 µM |
| 0.03 | O=C(O)/C(=C/c1ccc(Oc2c(F)cccc2Br)cc1)NC(=O)c1ccccc1 | CC50 [2]: > 100 µM; EC50 [3]: 50 µM |
